In patent US8623906B2, “Carboxy isatin hydrazones and their esters as Shp2 inhibitors” (H. Lee Moffitt Cancer Center and Research Institute, Inc., priority 2009, dated 2014):
Read-outs that look alike come from different tables or passages of the source.

Experiments:
[1] = test system: GST-Shp2 PTP domain protein; format: biochemical
Method: All reactions were monitored by thin layer chromatography (TLC) or ^1H NMR. Some products, which could not be purified by simply washing, were purified by Flashmaster chromatography. […] After the purity and structure were confirmed, samples were tested for IC50 by DiFMUP assay, seen in Table 1, appended.
Curve fitting and IC50 were obtained using the GraphPad Prism program (GraphPad Software).

Shp2 in MDA-MB-468 cells = format: cell-based
Method: (§1) To measure Shp2 PTP activity in immune complexes, cells were lysed in ice-cold PTP lysis buffer [25 mM Hepes, pH 7.4, 150 mM NaCl, 1 mM DTT, 2 mM EDTA, 0.5% Triton X-100, 1:50 diluted protease inhibitor cocktail (Roche, Basel, Switzerland)]. Cell lysate supernatants (0.2 mg/each) were incubated with an anti-Shp2 antibody (Santa Cruz Biotechnology, Santa Cruz, Calif.) or with an anti-Flag antibody M2 (Sigma-Aldrich, St. Louis, Mo.) plus protein G-Sepharose for 2 h at 4° C. Immunoprecipitates were washed twice with the PTP lysis buffer and twice with the Reaction Buffer A (25 mM Hepes, pH 7.4, 50 mM NaCl, 1 mM DTT, 0.05% Triton X-100). Each Shp2 immune complex was resuspended in 100 μl of reaction buffer containing 50 μM DiFMUP and incubated at room temperature for 20 min. After a brief centrifugation, supernatants were transferred into 96-well plates and the DiFMU fluorescence signal was measured. The remaining immune complex pellets were used for immunoblotting analysis of Shp2 protein.

[2] = test system: Shp2^E76K in TF-1/Shp2^E76K cells; format: cell-based
Method: as §1

pISRE-Luc in HT-29 cells = assay: ISRE luciferase reporter assay; format: cell-based; conditions: 50 U/ml IFN-γ alone, 6 h
Method: Luciferase reporter assays were conducted using HT-29 cells (5×10^5 cells/each in 12-well plate) were co-transfected with 1.6 μg pISRE-Luc (Clontech, Mountain View, Calif.) and 0.4 μg β-gal plasmids with LipofectAMINE 2000 reagent. Eighteen hours after transfection, cells were incubated in fresh medium, pretreated with indicated concentrations of SPI-112Me or mocked treated for 2 h, and then stimulated with 50 U/ml IFN-γ for 6 h or left unstimulated. Luciferase and β-galactosidase activities were determined as described (Ren, et al., Shp2E76K mutant confers cytokine-independent survival of TF-1 myeloid cells by up-regulating Bcl-XL. J Biol Chem 2007; 282:36463-73). The luciferase activity was then normalized to β-galactosidase-galactosidase activity as an internal control for transfection efficiency.

HT-29 cells = assay: Viable cell number (CellTiterGlo), 4 days, Bliss synergism; conditions: IFN-γ 100 U/ml alone
Method: TF-1/Shp2^E76K and HT-29 Cells (1,000 cells/well in triplicate) were plated in 96-well plates in RPMI160/10% FBS plus test agent(s) in a total volume of 100 μl. […] After incubation for 4 days at 37° C./5% CO2, relative viable cell number was measured using the CelltiterGlo reagent (Promega) following the supplier's instruction.
Assume X is the fraction of inhibition caused by the first agent, Y is the fraction of inhibition caused by the second agent, and Z is the fraction of inhibition caused by the combination of both agents,
If Z=X+Y−XY, then the effect of two agents is additive.
If Z>X+Y−XY, then the effect of two agents is synergistic.
If Z<X+Y−XY, then the effect of two agents is antagonistic.

With `O=C(O)CCC(=O)N1CCc2cc(S(=O)(=O)N3CCN(c4ccc(C(=O)O)cc4)CC3)ccc21` [XW3-002] the IC50 ([1]; Table 1, DiFMUP assay) was 6.1 ± 1.8 µM.

With `O=C(O)/C=C/C(=O)N1CCc2cc(S(=O)(=O)N3CCN(c4cccc(Cl)c4)CC3)ccc21` [JHE-01-129A] the IC50 [1] was 2.8 µM.

For `O=C1Nc2ccc(S(=O)(=O)NCc3ccc(F)cc3)cc2/C1=N/Nc1cccc(C(=O)O)c1` [SPI-112, (Z)-3-(2-(5-(N-(4-fluorobenzyl)sulfamoyl)-2-oxoindolin-3-ylidene)hydrazinyl)benzoic acid], the IC50 [1] was 2.6 µM, the “effect on EGF-stimulated Shp2 PTP activity” value (Shp2 in MDA-MB-468 cells) was “did not affect” and the “effect on Shp2^E76K PTP activity in treated cells” value [2] was “no decrease”.

In the case of `O=C(O)CCC(=O)N1CCc2cc(S(=O)(=O)N3CCN(c4ccc(F)cc4)CC3)ccc21` [XW2-011B], the IC50 [1] is reported as 47.8 µM.

Molecule `COc1cccc(C(=O)N2CCc3cc(S(=O)(=O)N4CCN(c5cccc(Cl)c5)CC4)ccc32)c1` [JHE-02-035A] has an IC50 [1] of 7.8 µM.

`COc1cccc(NC(=O)N2CCc3cc(S(=O)(=O)N4CCN(c5cccc(Cl)c5)CC4)ccc32)c1` [JHE-02-032B] was tested, and the IC50 [1] was 4.8 µM.

`COC(=O)c1cccc(N/N=C2\C(=O)Nc3ccc(S(=O)(=O)NCc4ccc(F)cc4)cc32)c1` [SPI-112Me, (Z)-3-(2-(5-(N-(4-fluorobenzyl)sulfamoyl)-2-oxoindolin-3-ylidene) hydrazinyl)benzoic acid methyl ester] was tested, and the IC50 [1] was greater than 100 µM, the “reduction of EGF-stimulated Shp2 PTP activity” value (Shp2 in MDA-MB-468 cells; 20 μM pretreatment, EGF 50 ng/ml, 10 min) was 77% and the “effect on Shp2^E76K PTP activity in treated cells” value ([2]; GM-CSF-free medium) was “lower Shp2^E76K PTP activity”.

Molecule `O=C(Nc1cccc(Cl)c1)N1CCc2cc(S(=O)(=O)N3CCN(c4cccc(Cl)c4)CC3)ccc21` [JHE-02-032A] has an IC50 [1] of 8.3 µM.

`O=C(O)CCC(=O)N1CCCc2cc(S(=O)(=O)N3CCN(c4cccc(Cl)c4)CC3)ccc21` [JHE-02-023] gave an IC50 ([1]; Table 1, DiFMUP assay) of 37.3 ± 5.3 µM.

`Cc1cccc(N2CCN(S(=O)(=O)c3ccc4c(c3)CCN4C(=O)CCC(=O)O)CC2)c1` [XW2-057] showed an IC50 ([1]; Table 1, DiFMUP assay) of 3.4 ± 2.3 µM.

For `O=C(c1ccc(Cl)c(Cl)c1)N1CCc2cc(S(=O)(=O)N3CCN(c4cccc(Cl)c4)CC3)ccc21` [JF023], the IC50 [1] was 7.1 µM.

B1: IFN-γ: interferon gamma used to stimulate HT-29 cells, alone or combined with SPI-112Me (protein, UniProt P01579 24-161, looked up)
Interferon gamma: QDPYVKEAENLKKYFNAGHSDVADNGTLFLGILKNWKEESDRKIMQSQIVSFYFKLFKNFKDDQSIQKSVETIKEDMNVKFFNSNKKKRDDFEKLTNYSVTDLNVQRKAIHELIQVMAELSPAAKTGKRKRSQMLFRG
B1 was tested, and the “activation of ISRE luciferase activity” value (pISRE-Luc in HT-29 cells) was 26% and the fraction of inhibition (HT-29 cells) was 0.18.
